Key:
[1] = system: LV protein extracts from murine IR hearts; assay: Western blot of LV protein extracts from ex vivo IR hearts (cleaved caspase 3, pAKT/AKT, pERK1/2/ERK1/2); parameters: species or system mouse (C57BL/6J); conditions: for Cleaved caspase 3 (caspase 3 activation): IR hearts reperfused with MSC 2500 cells/mL, pre-treated 24 h or not (GW0742 1 μM)
Experimental: FIG. 9: (A) C57B16 mouse hearts were mounted on a Langendorff system. The ex vivo protocol comprises a 15 minute-period of stabilization, followed by 30 minutes of global ischemia achieved by stopping the flow through the aorta (no-flow). Reperfusion was achieved by restoring the Tyrode perfusion during 60 minutes (IR group). […] At the end of the protocol, hearts were collected, protein extracted for further analysis. (B, C, D) Western blot analysis was performed from LV protein extracts from IR non-treated or MSC-treated murine IR hearts (ex vivo) with or without a pharmacological pre-treatment. Scatter dot blots and mean±SD were plotted for Cleaved-caspase 3 (W=0.0322 for IR, n=10 vs MSC +GW0742, n=10) and for pAKT/AKT (p*=0.0385 for IR, n=8 vs MSC+GW0742, n=8). Data were compared using non parametric Kruskal-Wallis test (Dunn's post hoc test).
On the Langendorff system, the heart was subjected to ischemia-reperfusion (IR) protocol comprising, after a 15 min-stabilization period of Tyrode perfusion, a 30 min-period of no-flow to induce global ischemia). Reperfusion was achieved by restoring the perfusion during 60 min with the Tyrode solution alone (IR control) or with MSC cell in Tyrode solution (MSC) administrated during reperfusion. Ischemic postconditioning was induced at the end of global ischemia by the application of a conditioning stimulus comprising 3 cycles of 1 min-reperfusion/1 min-ischemia, followed by 54 min of reperfusion. For the ex vivo evaluation of MSC-based cell therapy, 80 to 150 mL of MSC (mean value 120 mL) cells prepared in the Tyrode solution at various concentrations (2500, 5000 et 20000 cells/mL) were perfused retrogradely via the aorta and the coronary vessels in isolated hearts during the 60 min-reperfusion phase.
Tissue samples (left ventricle) were rapidly frozen in liquid nitrogen after the end of ex vivo IR protocols. […] Protein concentrations were determined with the bicinchoninic acid (BCA) protein assay kit (Pierce). […]

[2] = system: C57B16 mouse hearts subjected to IR injury; assay: Ex vivo Langendorff ischemia-reperfusion, infarct size (Example 2, naive or pretreated MSC); parameters: species or system mouse (C57BL/6J); conditions: MSC 2,500 cells/mL (3.10^5 MSC) pretreated 24 h with GW0742 1 μM; mean±SD
[3] = system: TXNIP (Thioredoxin interacting protein); conditions: neuronal stress; neonatal hypoxic-ischemic injury in rats; cited from earlier work
[4] = system: isolated perfused hearts from C57B16 mice; assay: Ex vivo Langendorff ischemia-reperfusion, infarct size, effect of preconditioning duration (Example 3); parameters: species or system mouse (C57BL/6); conditions: MSC preconditioned 24 h with 1 μM, 5,000 cells/ml, vs IR
[5] = system: infarcted myocardial tissue; assay: MSC grafted in infarcted myocardial tissue, fluorescence of Dil-labeled MSC in LV sections; parameters: species or system mouse (C57BL/6J); conditions: Dil-labeled MSC pretreated 1 μM vs naive MSC
Experimental: MSCs were pre-incubated for 24 hours with either PPARβ/δ antagonists GSK3787 (0.1 and 1 μM), PPARβ/δ inverse agonist GSK0660 (0.1 and 1 μM) or PPARβ/δ agonist GW0742 (0.1, 1 and 5 μM) before to be washed with PBS and used in co-cultures experiments or injected in the myocardium. When indicated, MSCs were labeled with the fluorescent cell-tracer CM-Dil (Molecular Probes). MSC were collected and suspended in 5 mL PBS containing CM-Dil (10^7 cells/10 μg) prior to be incubated at 37° C. for 5 minutes followed by 15 minutes at 4° C., in the dark. Labeled MSCs were washed 2 times in PBS, resuspended in PBS and maintained at 4° C. prior to be injected in the myocardium.
At the end of ex vivo experiments, left ventricles (LV) were fixated in formol and embedded in paraffin. Each left ventricle was cut from the apex through the base (4 μm sections each 150 μm). Paraffin-embedded sections were deparaffinised then rehydrated through an alcohol gradient. Sections were mounted in Mowiol (Biovalley). LV Sections were scanned by the Zeiss Axio Scan Z1 slide scanner (Zeiss, Oberkochen, Germany). Scanning was done with the ×20 objective. Images were analyzed using ImageJ.

Row | Compound | Cleaved caspase 3 (caspase 3 activation) [1] | Phosphorylation ratio pAkt/Akt ([1]; IR hearts, MSC pre-treated with 1 μM prior to administration during reperfusion, vs non-treated IR) | Infarct size [2] | TXNIP inhibition [3] | Decrease in infarct size [4] | Percentage of fluorescence (MSC grafted in infarcted myocardium) increased by [5]
1 | Cc1cc(SCc2sc(-c3ccc(C(F)(F)F)c(F)c3)nc2C)ccc1OCC(=O)O [GW0742] | inhibition of caspase 3 cleavage was further increased | significantly increased phosphorylation ratio pAkt/Akt | same cardioprotective effect | inhibits TXNIP | 54.6% | 3.5 times
2 | COC(=O)c1sccc1S(=O)(=O)Nc1ccc(Nc2ccccc2)cc1OC [GSK0660] | restored full activation of caspase 3 |  |  |  |  | 

— patent US20240091267A1, “PRE-TREATMENT OF MSC WITH PPARB/DELTA AGONIST FOR TREATMENT OF ISCHEMIA-REPERFUSION INJURY” (Universite de Montpellier, priority 2020, published 2024)
